According to patent US20220175860A1, “DUNALIELLA ALGA PREPARATION FOR PREVENTION AND/OR TREATMENT OF A NEURODEGENERATIVE DISEASE, A DISORDER ASSOCIATED WITH PROTEIN MISFOLDING AND COGNITIVE DECLINE” (TEL HASHOMER MEDICAL RESEARCH INFRASTRUCTURE AND SERVICES …, priority 2019, published 2022):
Read-outs that look alike come from different tables or passages of the source.

Tests used:
[1] = test system: blood brain barrier (BBB) in-vitro model (endothelial cells / glial cells); test: In vitro blood brain barrier (BBB) cell culture model, HPLC of carotenoids; type: in vitro ADME, porcine brain endothelial cells, new born rat glial cells
Description: FIG. 5A-FIG. 5C: Schematic drawings of the in vitro blood brain barrier (BBB) cell culture system. The model consists of a monolayer of endothelial cells, forming tight junctions that are grown on a microporous membrane filter culture insert (luminal side) and glial cells seeded at the abluminal side of the filter. Low Density Lipoprotein (LDL, 100 μl 1,600 μg/ml) from a healthy volunteer is added to the luminal side. Cells are incubated for 24 hours and then samples are collected from the luminal and abluminal side and analyzed.
An in vitro model of the blood brain barrier (BBB) was used. The model consists of a monolayer of endothelial cells, obtained from primary cultures of endothelial cells established from freshly collected porcine brain forming tight junctions that are grown on a microporous membrane filter culture insert (the “Luminal side” in FIG. 6) and of a monolayer of glial cells extracted from new born rats' cortex that are seeded at the abluminal side of the filter (the “Abluminal side” in FIG. 6). Low density lipoprotein (LDL, 100 μl, 1,600 μg/ml from a healthy volunteer) was added to the luminal side. Cells were then incubated for 24 hours and thereafter samples were collected and analyzed using HPLC. The model was prepared by first seeding the glial cells on the abluminal side of a filter, a week later, the above-described endothelial cells were seeded on the luminal side of the filter and two days later LDL was added to the luminal side of the filter as indicated above.
LDL was obtained from healthy volunteers by sequential ultracentrifugation (density, 1.063 g/ml), and the concentration was determined by the Lowry method.
Using the “BBB in-vitro model” described above and schematically shown in FIG. 5A, 5B, 5C, glial and endothelial cells were incubated for 24 hours in the presence of LDL (inherently containing all-trans and 9-cis β-carotene) and then samples were collected and carotenoids were extracted and analyzed using HPLC.

[2] = Tissue carotenoids by HPLC in Tg2576 mice; type: in vivo; conditions: Tg2576 study, mice fed Dunaliella diet vs control diet
Source text: In order to assess whether carotenoid level was higher in brain tissue of Tg2576 mice fed with the Dunaliella diet as compared to the control group, mice brain carotenoids were extracted and then measured using HPLC.

[3] = Tissue carotenoids by HPLC in 5×FAD mice; conditions: for Amount in brain tissues: 5×FAD mice fed Dunaliella algae diet vs regular diet, HPLC; for Accumulation in liver, fat and brain tissues: 5×FAD study, Dunaliella diet group vs control group
[4] = carotenoids in human LDL added to luminal side, 24 hours incubation, HPLC

Crossing of the BBB (luminal to abluminal side) [1, 4] | Tissue levels (liver, fat, brain) [2] | Amount in brain tissues [3] | Accumulation in liver, fat and brain tissues [3] | Crossing of the BBB (luminal to abluminal side) [1] | Compound
crossed the BBB | much higher levels | significantly higher amounts | much higher levels |  | CC1=C(/C=C/C(C)=C\C=C\C(C)=C\C=C\C=C(C)\C=C\C=C(C)\C=C\C2=C(C)CCCC2(C)C)C(C)(C)CCC1 [9-cis β Carotene, 9-cis β-carotene]
crossed the BBB | much higher levels | significantly higher amounts | much higher levels |  | CC1=C(/C=C/C(C)=C/C=C/C(C)=C/C=C/C=C(C)/C=C/C=C(C)/C=C/C2=C(C)CCCC2(C)C)C(C)(C)CCC1 [all-trans β Carotene, all-trans β-carotene]
 |  |  |  | did not cross the BBB | CC(C)=CCC/C(C)=C/C=C/C(C)=C/C=C/C(C)=C/C=C/C=C(C)/C=C/C=C(C)/C=C/C=C(\C)CCC=C(C)C [lycopene, reference compound]
